Several values for one entry are separate records, joined by “and”; a condition that tells them apart may be missing. Identical values can stand only once. Toxic doses and inconclusive results are not listed. How the source made its calls: active means survival T/C of 150% or more; inactive means T/C below 125% in these data.
Test system: P388 leukemia ip, CD2F1 mice, survival T/C
Test: NCI In Vivo Anticancer Drug Screen. Data for tumor model P388 Leukemia (intraperitoneal) in CD2F1 (CDF1) mice
Conditions: endpoint: median survival time, higher = longer survival
Summary of the method: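 Mice carrying the transplanted tumor received test compound or vehicle. Survival was recorded in each group, and the value is the treated-group measurement divided by that of the vehicle-treated control group.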

[1] = dose: 60.0 mg/kg/injection, schedule: Q01DX005 (ip), vehicle: Klucel (hydroxypropylcellulose) (HPC)
[2] = dose: 120.0 mg/kg/injection, schedule: Q01DX005 (ip), vehicle: Klucel (hydroxypropylcellulose) (HPC)
[3] = dose: 240.0 mg/kg/injection, schedule: Q01DX005 (ip), vehicle: Klucel (hydroxypropylcellulose) (HPC)
[4] = dose: 50.0 mg/kg/injection, schedule: Q01DX005 (ip), vehicle: saline with Tween-80
[5] = dose: 100.0 mg/kg/injection, schedule: Q01DX005 (ip), vehicle: saline with Tween-80
[6] = dose: 200.0 mg/kg/injection, schedule: Q01DX005 (ip), vehicle: saline with Tween-80
[7] = dose: 50.0 mg/kg/injection, schedule: Q01DX005 (ip), vehicle: saline
[8] = dose: 100.0 mg/kg/injection, schedule: Q01DX005 (ip), vehicle: saline
[9] = dose: 200.0 mg/kg/injection, schedule: Q01DX005 (ip), vehicle: saline
[10] = dose: 60.0 mg/kg/injection, schedule: Q01DX005 (ip), vehicle: saline with Tween-80
[11] = dose: 120.0 mg/kg/injection, schedule: Q01DX005 (ip), vehicle: saline with Tween-80
[12] = dose: 240.0 mg/kg/injection, schedule: Q01DX005 (ip), vehicle: saline with Tween-80
[13] = dose: 25.0 mg/kg/injection, schedule: Q01DX009 (ip), vehicle: other
[14] = dose: 50.0 mg/kg/injection, schedule: Q01DX009 (ip), vehicle: other
[15] = dose: 100.0 mg/kg/injection, schedule: Q01DX009 (ip), vehicle: other
[16] = dose: 200.0 mg/kg/injection, schedule: Q01DX009 (ip), vehicle: other

Measured: T/C

COc1ccc2cc1Oc1ccc(cc1)CC1c3cc(c(OC)cc3CCN1C)Oc1c(O)c(OC)cc3c1C(C2)N(C)CC3 (stereo not drawn)
inactive: dose: 15.0 mg/kg/injection, schedule: Q01DX009 (ip), vehicle: Klucel (hydroxypropylcellulose) (HPC) 95 % of control | dose: 30.0 mg/kg/injection, schedule: Q01DX009 (ip), vehicle: Klucel (hydroxypropylcellulose) (HPC) 93 % of control | dose: 60.0 mg/kg/injection, schedule: Q01DX009 (ip), vehicle: Klucel (hydroxypropylcellulose) (HPC) 97 % of control

CC12CC3CN(C(=O)c4ccccc4)CCC3CC1=Nc1ccccc12 (stereo not drawn)
inactive: dose: 25.0 mg/kg/injection, schedule: Q04DX002 (ip), vehicle: saline with Tween-80 100 % of control | dose: 50.0 mg/kg/injection, schedule: Q04DX002 (ip), vehicle: saline with Tween-80 103 % of control | dose: 100.0 mg/kg/injection, schedule: Q04DX002 (ip), vehicle: saline with Tween-80 94 % of control | dose: 200.0 mg/kg/injection, schedule: Q04DX002 (ip), vehicle: saline with Tween-80 86 % of control

O=C(O)c1c[nH]c2c(ccc3[nH]cc(C(=O)O)c(=O)c32)c1=O
inactive: [1] 105 % of control | [2] 102 % of control | [3] 92 % of control

CCOC(=O)c1c[nH]c2ccc(N(CCO)CCO)cc12
inactive: [4] 102 % of control | [5] 105 % of control | [6] 108 % of control

CC(NCCNC(C)c1cccnc1)c1cccnc1 (stereo not drawn)
inactive: [7] 102 % of control | [8] 110 % of control | [9] 94 % of control

CCC(C)C1CCCCC1 (stereo not drawn)
inactive: dose: 100.0 mg/kg/injection, schedule: Q01DX009 (ip), vehicle: Klucel (hydroxypropylcellulose) (HPC) 104 % of control | dose: 200.0 mg/kg/injection, schedule: Q01DX009 (ip), vehicle: Klucel (hydroxypropylcellulose) (HPC) 100 % of control | dose: 400.0 mg/kg/injection, schedule: Q01DX009 (ip), vehicle: Klucel (hydroxypropylcellulose) (HPC) 101 % of control

O=C1C(CC=C(Cl)Cl)=C(OC2OC(CO)C(O)C(O)C2O)C(=O)c2ccccc21 (stereo not drawn)
inactive: dose: 3.12 mg/kg/injection, schedule: Q01DX009 (ip), vehicle: saline with Tween-80 103 % of control | dose: 6.25 mg/kg/injection, schedule: Q01DX009 (ip), vehicle: saline with Tween-80 109 % of control | dose: 12.5 mg/kg/injection, schedule: Q01DX009 (ip), vehicle: saline with Tween-80 111 % of control

COC(=O)N1CCC(N)(C#N)CC1
inactive: dose: 12.5 mg/kg/injection, schedule: Q04DX003 (ip), vehicle: Klucel (hydroxypropylcellulose) (HPC) 100 % of control | dose: 25.0 mg/kg/injection, schedule: Q04DX003 (ip), vehicle: Klucel (hydroxypropylcellulose) (HPC) 93 % of control

CN(C)C1=NC(NC(C)(C)C)(N(C)C)OC(N(C)C)=N1 (stereo not drawn)
inactive: dose: 25.0 mg/kg/injection, schedule: Q01DX005 (ip), vehicle: saline 100 % of control | [7] 100 % of control | [8] 104 % of control

OCC(O)C(O)C(O)c1nn(-c2ccccc2)c2nc3ccccc3nc12 (stereo not drawn)
inactive: dose: 25.0 mg/kg/injection, schedule: Q01DX005 (ip), vehicle: saline with Tween-80 94 % of control | [4] 100 % of control and 90 % of control | [5] 90 % of control | [6] 90 % of control

CCOCCNc1ncnc2c1cnn2C
inactive: dose: 12.5 mg/kg/injection, schedule: Q04DX003 (ip), vehicle: saline 91 % of control | dose: 25.0 mg/kg/injection, schedule: Q04DX003 (ip), vehicle: saline 88 % of control | dose: 50.0 mg/kg/injection, schedule: Q04DX003 (ip), vehicle: saline 93 % of control | dose: 100.0 mg/kg/injection, schedule: Q04DX003 (ip), vehicle: saline 95 % of control

C[N+]1=C(c2ccc[nH]2)CC(C(=O)[O-])CC1 (stereo not drawn)
inactive: [10] 100 % of control | [11] 106 % of control | [12] 102 % of control

CN[C@H]1CCc2cc(OC)c(OC)c(OC)c2-c2ccc(O)c(=O)cc21
inactive: dose: 2.5 mg/kg/injection, schedule: Q01DX009 (ip), vehicle: Klucel (hydroxypropylcellulose) (HPC) 103 % of control | dose: 5.0 mg/kg/injection, schedule: Q01DX009 (ip), vehicle: Klucel (hydroxypropylcellulose) (HPC) 100 % of control | dose: 10.0 mg/kg/injection, schedule: Q01DX009 (ip), vehicle: Klucel (hydroxypropylcellulose) (HPC) 99 % of control | dose: 20.0 mg/kg/injection, schedule: Q01DX009 (ip), vehicle: Klucel (hydroxypropylcellulose) (HPC) 93 % of control | dose: 40.0 mg/kg/injection, schedule: Q01DX009 (ip), vehicle: Klucel (hydroxypropylcellulose) (HPC) 92 % of control | dose: 80.0 mg/kg/injection, schedule: Q01DX009 (ip), vehicle: Klucel (hydroxypropylcellulose) (HPC) 108 % of control

O=c1[nH]c(-c2ccc(Cl)cc2)nc2sc3c(c12)CCCC3
inactive: dose: 50.0 mg/kg/injection, schedule: Q01DX005 (ip), vehicle: Klucel (hydroxypropylcellulose) (HPC) 86 % of control | dose: 100.0 mg/kg/injection, schedule: Q01DX005 (ip), vehicle: Klucel (hydroxypropylcellulose) (HPC) 90 % of control | dose: 200.0 mg/kg/injection, schedule: Q01DX005 (ip), vehicle: Klucel (hydroxypropylcellulose) (HPC) 99 % of control

NC(=NCCCCCCN=C(N)[N+](=O)[O-])N[N+](=O)[O-]
inactive: dose: 6.25 mg/kg/injection, schedule: Q01DX009 (ip), vehicle: Klucel (hydroxypropylcellulose) (HPC) 113 % of control and 123 % of control | dose: 12.5 mg/kg/injection, schedule: Q01DX009 (ip), vehicle: Klucel (hydroxypropylcellulose) (HPC) 105 % of control and 106 % of control | dose: 25.0 mg/kg/injection, schedule: Q01DX009 (ip), vehicle: Klucel (hydroxypropylcellulose) (HPC) 99 % of control and 106 % of control

COc1ccc(C(=O)/C(C)=C(/C)NCCC#N)c(OCc2ccccc2)c1OC
inactive: [13] 95 % of control | [14] 91 % of control | [15] 95 % of control | [16] 100 % of control | dose: 400.0 mg/kg/injection, schedule: Q01DX009 (ip), vehicle: other 95 % of control

CN(C)c1cc(-c2ccccc2)oc(=O)c1Cl
inactive: dose: 50.0 mg/kg/injection, schedule: Q01DX009 (ip), vehicle: saline with Tween-80 99 % of control | dose: 100.0 mg/kg/injection, schedule: Q01DX009 (ip), vehicle: saline with Tween-80 100 % of control

COc1ccc(/C(CC2(O)C(=O)Nc3ccccc32)=N\NC(=O)NN)cc1O (stereo not drawn)
inactive: [4] 101 % of control | [5] 107 % of control | [6] 100 % of control

CSCc1csc(N)n1
inactive: dose: 12.5 mg/kg/injection, schedule: Q01DX009 (ip), vehicle: other 102 % of control | [13] 96 % of control | [14] 111 % of control | [15] 111 % of control | [16] 100 % of control

COC(=O)c1c[n+]([O-])ccc1OC
inactive: [7] 102 % of control | [8] 106 % of control | [9] 102 % of control

Nc1cc(=O)[nH]c(O)c1C(=O)O
inactive: dose: 25.0 mg/kg/injection, schedule: Q01DX009 (ip), vehicle: saline with Tween-80 95 % of control

COc1cc2c(cc1OC)[Se](Br)(Br)c1cc(OC)c(OC)cc1[Se]2
inactive: [10] 107 % of control | [11] 98 % of control | [12] 100 % of control

CS(C)(NC(N)=O)OS(=O)(=O)O
inactive: dose: 60.0 mg/kg/injection, schedule: Q01DX005 (ip), vehicle: saline 98 % of control | dose: 120.0 mg/kg/injection, schedule: Q01DX005 (ip), vehicle: saline 98 % of control | dose: 240.0 mg/kg/injection, schedule: Q01DX005 (ip), vehicle: saline 101 % of control

CSc1ncnc2c1ncn2C(SC)C(OC(C)=O)C(OC(C)=O)C(OC(C)=O)C(COC(C)=O)OC(C)=O (stereo not drawn)
inactive: [4] 96 % of control | [5] 97 % of control | [6] 102 % of control

O=C(OCc1ccccc1)c1ccc(=O)oc1
inactive: dose: 100.0 mg/kg/injection, schedule: Q04DX003 (ip), vehicle: Klucel (hydroxypropylcellulose) (HPC) 114 % of control | dose: 200.0 mg/kg/injection, schedule: Q04DX003 (ip), vehicle: Klucel (hydroxypropylcellulose) (HPC) 110 % of control

Nc1nc(N)c2nc(SCc3ccc(Cl)cc3)c(N)nc2n1
inactive: dose: 15.0 mg/kg/injection, schedule: Q01DX005 (ip), vehicle: Klucel (hydroxypropylcellulose) (HPC) 88 % of control | dose: 30.0 mg/kg/injection, schedule: Q01DX005 (ip), vehicle: Klucel (hydroxypropylcellulose) (HPC) 88 % of control | [1] 103 % of control | [2] 88 % of control | [3] 94 % of control

CCOC(=O)c1c(Br)c2c3ccccc3c3ccccc3n2c1C
inactive: [10] 100 % of control | [11] 111 % of control | [12] 100 % of control

— PubChem BioAssay AID330 (DTP/NCI, 2004)
